Reference: patent US20230321126A1 (priority 2020, published 2023)

Experiments:
[1] = target: RBD of SARS-CoV-2 spike protein / hACE2 receptor (Severe acute respiratory syndrome coronavirus 2, UniProt P0DTC2); format: binding; conditions: 100 μg/ml
[2] = test system: SARS-CoV-2 spike protein pseudo-typed virions; format: cell-based
[3] = test system: A549 cells expressing SARS-CoV-2 spike protein / hACE2/A549 cells; format: cell-based, human; conditions: 25 μg/ml, 4 h
[4] = target: T1, hACE2 (Homo sapiens, UniProt Q9BYF1); test: ACE2 binding assay (ACE2 Inhibitor Screening Assay Kit); design: purchased BPS Bioscience
T1 sequence (Q9BYF1 18-805): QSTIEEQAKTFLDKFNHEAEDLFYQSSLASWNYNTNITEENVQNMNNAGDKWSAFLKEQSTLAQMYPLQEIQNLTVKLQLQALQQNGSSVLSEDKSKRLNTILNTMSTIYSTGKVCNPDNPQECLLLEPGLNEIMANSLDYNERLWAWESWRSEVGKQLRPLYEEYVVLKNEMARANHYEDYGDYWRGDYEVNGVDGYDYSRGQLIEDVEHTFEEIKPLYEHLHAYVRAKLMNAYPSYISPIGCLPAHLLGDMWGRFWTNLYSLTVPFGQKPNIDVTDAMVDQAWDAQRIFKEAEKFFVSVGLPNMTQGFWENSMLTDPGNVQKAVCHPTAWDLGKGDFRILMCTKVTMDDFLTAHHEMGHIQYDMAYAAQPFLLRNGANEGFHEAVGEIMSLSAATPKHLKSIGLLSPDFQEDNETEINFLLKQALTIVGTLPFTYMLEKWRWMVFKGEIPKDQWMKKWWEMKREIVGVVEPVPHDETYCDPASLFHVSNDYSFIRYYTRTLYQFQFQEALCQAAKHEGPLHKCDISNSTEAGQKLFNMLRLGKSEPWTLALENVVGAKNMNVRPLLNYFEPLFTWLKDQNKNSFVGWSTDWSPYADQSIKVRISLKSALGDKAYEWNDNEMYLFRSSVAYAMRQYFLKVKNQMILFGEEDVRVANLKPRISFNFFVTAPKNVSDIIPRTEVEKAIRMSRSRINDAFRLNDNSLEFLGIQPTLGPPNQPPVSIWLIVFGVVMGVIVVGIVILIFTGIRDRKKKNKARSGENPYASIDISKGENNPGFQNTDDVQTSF

[5] = test system: cathepsin L; test: Cathepsin L expression in A549 cells (Western blot); format: cell-based, human; conditions: 24 h
Protocol: Western blot analysis: A549 cells were treated with indicated concentrations of selected polyphenols and lysed using RIPA lysis buffer (Sigma, St. Louis, MO) supplemented with 1× Complete protease inhibitors (Roche Applied Science, Indianapolis, IN). The protein concentration was measured by the Dc protein assay (Bio-Rad, Hercules, CA). Proteins (50 μg/well) were separated on 8-16% gradient SDS-PAGE gels and transferred to a PVDF membrane. Specific proteins were detected with commercially available human anti-cathepsin L, anti-TMPRSS2, and anti-ACE2 monoclonal antibodies, all at 1:200 dilution, and anti-β-actin antibody as a loading control at 1:1000 dilution. Images were captured with Azure™ cSeries digital imaging system (Azure Biosystems, Dublin, CA) with auto-exposure settings. Densitometry was performed with NIH ImageJ software.
Cathepsin L expression: Expression of cathepsin L in cells was performed using Western blot. […] Next, cells were washed with 1×PBS, lysed, and processed according to procedure described below.
Western blot: A495 cells were lysed with lysis buffer [R IPA buffer plus 1× Protease Inhibitor (ThermoFisher Scientific, Waltham, MA)]. The protein estimation was performed with Dc Protein Assay (Bio-Rad, Hercules, CA). A 45 μg/well of protein was separated on 8-16% gradient SDS-PAGE gels and transferred to a PVDF membrane. […]

[6] = target: RBD of SARS-CoV-2 spike protein (Severe acute respiratory syndrome coronavirus 2, UniProt P0DTC2); conditions: Jena et al.; cited from earlier work
[7] = target: T1, hACE2; conditions: Jena et al.; cited from earlier work
[8] = test system: SARS-CoV-2 spike protein pseudo-typed virions; format: cell-based; remark: listed apart in the source
[9] = test system: lysosomal/endosomal pH of A549 cells; test: Endosomal/lysosomal pH assay in A549 cells; format: cell-based, human; conditions: 5.0-25 μg/ml; control approximately pH=5.0
Protocol: Acridine orange (Thermo Fisher Scientific, Waltham, MA) was added directly to each dish to reach a final concentration of 6.6 μg/ml. The cells were additionally incubated at 37° C. with 5% CO2 for 20 min. and washed three times with 1×PBS. Live Cell Imaging Solution (LCIS) (Thermo Fisher Scientific, Waltham, MA) was added to the wells, and images were taken using a Zeiss Axio Observer A1 fluorescence microscope with a 40× magnification. […] Results are expressed as a percentage of polyphenol-free control (mean+/−SD, n=3).
A concurrent experiment was performed using pHrodo™ Green AM Intracellular pH Indicator (Thermo Fisher Scientific, Waltham, MA) according to the manufacturer's protocol. […] Next, 10 μl of the pHrodo™ Green AM dye was added to 100 μl of PowerLoad™ to facilitates uniform cellular loading of AM esters, and the whole dye solution was transferred into 10 ml of LCIS. […] The plate was incubated for 30 min. at 37° C., washed again with LCIS, and fluorescence was measured at Ex/Em=509/533 nm wavelength using a spectrofluorometer (Tecan Group Ltd, Switzerland). pH identification was performed based on standard curve, using an Intracellular pH Calibration Buffer Kit according to the manufacturer's protocol (Thermo Fisher Scientific, Waltham, MA). […] Next, the fluorescence was measured Ex/Em=509/533 nm wavelength. […]

Oc1ccc2c(c1)OC[C@]1(O)Cc3cc(O)c(O)cc3[C@H]21 [Brazilin]
rank of inhibitory effect among 56 polyphenols and plant extracts [1]: highest inhibitory effect | binding of pseudo-typed virions to hACE2/A549 [2]: inhibit, in dose-dependent fashion | decrease of fusion [3]: 40% | direct binding to ACE2 [4]: does not bind to ACE2 directly | cathepsin L expression at protein level [5]: neither brazilin nor curcumin downregulated cathepsin L expression

COc1cc(/C=C/C(=O)CC(=O)/C=C/c2ccc(O)c(OC)c2)ccc1O [Curcumin]
binding affinity to viral spike protein [6]: -10.5 kcal/mol | rank of inhibitory effect among 56 polyphenols and plant extracts [1]: highest inhibitory effect | binding of pseudo-typed virions to hACE2/A549 [2]: inhibit, in dose-dependent fashion | binding affinity to hACE2 [7]: -8.9 kcal/mol | concentration showing binding efficacy to ACE2 [4]: 10 to 25 µg/mL | concentration from which significant inhibition was seen [8]: ≥ 5.0 µg/mL | cathepsin L expression at protein level [5]: neither brazilin nor curcumin downregulated cathepsin L expression

catechin
binding affinity to viral spike protein [6]: -7.9 kcal/mol | binding affinity to hACE2 [7]: -7.8 kcal/mol

theaflavin-3,3′-digallate [TF-3]
binding of pseudo-typed virions to hACE2/A549 [2]: inhibit, in dose-dependent fashion | lysosomal/endosomal pH [9]: 5.5-6.0 pH
